Columns and labels:
[1] = target: Mitogen-activated protein kinase 8 (Homo sapiens, UniProt P45983); assay: Inhibition of JNK1 by ATF2 phosphorylation assay; type: functional
[2] = target: Mitogen-activated protein kinase 9 (Homo sapiens, UniProt P45984); assay: Inhibition of JNK2 by ATF2 phosphorylation assay; type: functional
[3] = target: c-Jun N-terminal kinase, JNK (Homo sapiens, UniProt P45983+P53779+P45984); assay: Inhibition of PcJun phosphorylation in HepG2 cells; type: functional, cell-based

Mitogen-activated protein kinase 9, sequence (P45984 whole entry): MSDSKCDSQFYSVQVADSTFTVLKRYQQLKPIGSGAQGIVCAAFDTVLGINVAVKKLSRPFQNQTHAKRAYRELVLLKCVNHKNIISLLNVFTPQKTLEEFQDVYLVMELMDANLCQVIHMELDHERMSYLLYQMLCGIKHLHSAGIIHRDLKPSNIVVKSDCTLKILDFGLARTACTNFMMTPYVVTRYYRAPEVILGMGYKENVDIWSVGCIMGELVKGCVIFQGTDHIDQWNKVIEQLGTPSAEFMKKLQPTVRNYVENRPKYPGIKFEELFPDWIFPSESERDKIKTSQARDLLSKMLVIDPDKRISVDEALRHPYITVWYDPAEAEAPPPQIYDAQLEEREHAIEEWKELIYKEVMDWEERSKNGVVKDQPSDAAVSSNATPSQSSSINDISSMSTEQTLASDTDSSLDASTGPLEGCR
Mitogen-activated protein kinase 8, sequence (P45983 whole entry): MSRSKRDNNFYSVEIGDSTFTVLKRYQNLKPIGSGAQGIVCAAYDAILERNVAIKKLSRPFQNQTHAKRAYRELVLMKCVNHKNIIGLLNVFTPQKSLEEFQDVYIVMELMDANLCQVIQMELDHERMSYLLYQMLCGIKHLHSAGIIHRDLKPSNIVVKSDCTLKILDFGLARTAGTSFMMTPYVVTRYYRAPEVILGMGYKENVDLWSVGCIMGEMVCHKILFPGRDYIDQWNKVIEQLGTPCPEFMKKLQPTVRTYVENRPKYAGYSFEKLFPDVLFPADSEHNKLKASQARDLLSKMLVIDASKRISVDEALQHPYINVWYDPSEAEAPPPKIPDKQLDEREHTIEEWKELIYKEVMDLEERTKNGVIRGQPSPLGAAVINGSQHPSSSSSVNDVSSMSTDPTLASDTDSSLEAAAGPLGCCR

Compound	IC50 [1] [µM]	IC50 [2] [µM]	IC50 [3] [µM]
COc1ccc(Oc2nc(C(=O)NCc3ccc(S(C)(=O)=O)cc3)cc(N)c2C#N)cc1	0.42	0.45	
C=Cc1c(N)cc(C(=O)NCc2ccc(S(C)(=O)=O)cc2)nc1OCC	1.18	1.46	4.63
COCCNc1nc(C(=O)NCc2ccc(S(C)(=O)=O)cc2)cc(N)c1C#N	0.12	0.21	5.9
CS(=O)(=O)c1ccc(CNC(=O)c2cc(N)c(C#N)c(-c3ccncc3)n2)cc1	0.53	0.66	
CC(C)Oc1nc(C(=O)NCc2ccc(S(C)(=O)=O)cc2)cc(N)c1C#N	0.015	0.038	0.25
CS(=O)(=O)c1ccc(CNC(=O)c2cc(N)c(C#N)c(NCCC(N)=O)n2)cc1	0.066	0.087	> 10
CCOc1nc(C(=O)NCc2ccc(S(C)(=O)=O)cc2)cc(N)c1C#CCO	1.09		5.7
COc1cccc(-c2nc(C(=O)NCc3ccc(S(C)(=O)=O)cc3)cc(N)c2C#N)c1	0.43	0.6	1.8
C#Cc1c(N)cc(C(=O)NCc2ccc(S(C)(=O)=O)cc2)nc1OCC	0.35	0.3	1.89
CS(=O)(=O)c1ccc(CNC(=O)c2cc(N)c(C#N)c(NC3CCC3)n2)cc1	0.085	0.16	0.62
CS(=O)(=O)c1ccc(CNC(=O)c2cc(N)c(C#N)c(-c3cccc(O)c3)n2)cc1	0.2	0.24	9.4
CS(=O)(=O)c1ccc(CNC(=O)c2cc(N)c(C#N)c(NCc3ccccc3)n2)cc1	0.82	4.7	
CS(=O)(=O)c1ccc(CNC(=O)c2cc(N)c(C#N)c(-c3ccsc3)n2)cc1	0.081	0.39	0.61
CS(=O)(=O)c1ccc(CNC(=O)c2cc(N)c(C#N)c(/C=C/CCO)n2)cc1	0.17	0.24	5.3
CS(=O)(=O)c1ccc(CNC(=O)c2cc(N)c(C#N)c(NCCO)n2)cc1	0.093	0.15	> 10
CC(C)[C@@H](CO)Nc1nc(C(=O)NCc2ccc(S(C)(=O)=O)cc2)cc(N)c1C#N	1.5	1.4	
CS(=O)(=O)c1ccc(CNC(=O)c2cc(N)c(C#N)c(/C=C/C(=O)O)n2)cc1	0.3	0.43	> 2.5
CS(=O)(=O)c1ccc(CNC(=O)c2cc(N)c(C#N)c(NCCN)n2)cc1	1.6		
CC(C)NC(=O)c1nc(C(=O)NCc2ccc(S(C)(=O)=O)cc2)cc(N)c1C#N	0.43	0.12	2.9
CS(=O)(=O)c1ccc(CNC(=O)c2cc(N)c(C#N)c(/C=C/c3ccccc3)n2)cc1	1.45	1.29	0.35
CCOc1nc(C(=O)NCc2ccc(S(C)(=O)=O)cc2)cc(N)c1/C=C/C(C)(C)C	2.93	4.16	> 10
CCOc1nc(C(=O)NCc2ccc(S(C)(=O)=O)cc2)cc(N)c1C#Cc1ccsc1	3.43	> 10	
CS(=O)(=O)c1ccc(CNC(=O)c2cc(N)c(C#N)c(NCCNC(N)=O)n2)cc1	0.093		> 10
CS(=O)(=O)c1ccc(CNC(=O)c2cc(N)c(C#N)c(NCCc3ccccc3)n2)cc1	0.26	1	2.7
CS(=O)(=O)c1ccc(CNC(=O)c2cc(N)c(C#N)c(-c3ccsc3CO)n2)cc1	0.57	0.68	10.8
CC(C)COc1nc(C(=O)NCc2ccc(S(C)(=O)=O)cc2)cc(N)c1C#N	0.088	0.37	0.7
CCCCC#Cc1c(N)cc(C(=O)NCc2ccc(S(C)(=O)=O)cc2)nc1OCC	> 10		
CS(=O)(=O)c1ccc(CNC(=O)c2cc(N)c(C#N)c(OCC3CC3)n2)cc1	0.023	0.047	0.56

Compound	IC50 [1] [µM]	IC50 [2] [µM]	IC50 [3] [µM]
CS(=O)(=O)c1ccc(CNC(=O)c2cc(N)c(C#N)c(-c3cccnc3)n2)cc1	0.32	0.34	7.3
CCOc1nc(C(=O)NCc2ccc(S(C)(=O)=O)cc2)cc(N)c1C(N)=O	0.318	0.969	7.54
C/C=C/c1nc(C(=O)NCc2ccc(S(C)(=O)=O)cc2)cc(N)c1C#N	0.048	0.23	0.89
CC(C)Nc1nc(C(=O)NCc2ccc(S(C)(=O)=O)cc2)cc(N)c1C#N	0.067	0.084	0.49
CS(=O)(=O)c1ccc(CNC(=O)c2cc(N)c(C#N)c(-c3ccoc3)n2)cc1	0.27	0.53	4.3
CS(=O)(=O)c1ccc(CNC(=O)c2cc(N)c(C#N)c(-c3ccc(C(=O)O)s3)n2)cc1	0.25	0.16	> 10
CS(=O)(=O)c1ccc(CNC(=O)c2cc(N)c(C#N)c(-c3cccc(S(C)(=O)=O)c3)n2)cc1	0.043	0.097	10.5
CCOc1nc(C(=O)NCc2ccc(S(C)(=O)=O)cc2)cc(N)c1/C=C/C#N	0.41	1.79	0.807
CN(C)CCNc1nc(C(=O)NCc2ccc(S(C)(=O)=O)cc2)cc(N)c1C#N	7.3	9.2	
CS(=O)(=O)c1ccc(CNC(=O)c2cc(N)c(C#N)c(OCC3CCCC3)n2)cc1	0.39	0.61	0.49
C[C@H](CO)Nc1nc(C(=O)NCc2ccc(S(C)(=O)=O)cc2)cc(N)c1C#N	0.18	0.32	> 10
C/C=C\c1nc(C(=O)NCc2ccc(S(C)(=O)=O)cc2)cc(N)c1C#N	0.15	0.26	5.5
CS(=O)(=O)c1ccc(CNC(=O)c2cc(N)c(C#N)c(NC(CO)CO)n2)cc1	0.076	0.1	> 10
C#C/C=C/c1c(N)cc(C(=O)NCc2ccc(S(C)(=O)=O)cc2)nc1OCC	0.079	0.3	1.4
CS(=O)(=O)c1ccc(CNC(=O)c2cc(N)c(C#N)c(NCCCO)n2)cc1	0.054	0.18	8.3
CS(=O)(=O)c1ccc(CNC(=O)c2cc(N)c(C#N)c(NC3CC3)n2)cc1	0.032	0.069	1.2
CCOc1nc(C(=O)NCc2ccc(S(C)(=O)=O)cc2)cc(N)c1/C=C/c1ccccc1	2.43	4.13	6.92
C[C@@H](CO)Nc1nc(C(=O)NCc2ccc(S(C)(=O)=O)cc2)cc(N)c1C#N	0.022	0.03	2.6
CS(=O)(=O)c1ccc(CNC(=O)c2cc(N)c(C#N)c(NC3CCCC3)n2)cc1	0.096	0.29	0.48
CS(=O)(=O)c1ccc(CNC(=O)c2cc(N)c(C#N)c(-c3cccc(Cl)c3)n2)cc1	1.18	0.84	1.2
CCOc1nc(C(=O)NCc2ccc(S(C)(=O)=O)cc2)cc(N)c1C#C/C=C/CO	1.55	4.32	5.24
CS(=O)(=O)c1ccc(CNC(=O)c2cc(N)c(C#N)c(-c3ccsc3CNCc3ccccc3)n2)cc1	1.99		8.01
CS(=O)(=O)c1ccc(CNC(=O)c2cc(N)c(C#N)c(-c3cncnc3)n2)cc1	0.62	0.86	> 10
CS(=O)(=O)c1ccc(CNC(=O)c2cc(N)c(C#N)c(CCC(=O)O)n2)cc1	1.64	6.92	
CC(=O)NCCNc1nc(C(=O)NCc2ccc(S(C)(=O)=O)cc2)cc(N)c1C#N	0.059	0.081	> 10
CCOc1nc(C(=O)NCc2ccc(S(C)(=O)=O)cc2)cc(N)c1C#CCCO	2.24	4.61	7.36
CCCNC(=O)c1c(N)cc(C(=O)NCc2ccc(S(C)(=O)=O)cc2)nc1OCC	5.25		
